The values below are quoted from earlier work in US6756056B2, “Treatment of Parkinson's disease and related disorders by novel formulations of the combination carbidopa-levodopa” (priority 1997, dated 2004).

For the series the following is noted: doses of 400 mg per day.

For `C[C@@](Cc1ccc(O)c(O)c1)(NN)C(=O)O` [carbidopa], the Adverse effects result is listed as “apparently devoid of adverse effects”.
